# What was measured:
# lipase = test: Lipase activity retention in detergent use solution (4000 ppm, 5 GPG water; p-nitrophenyl valerate, TRIS buffer pH 8.0); type: biochemical; conditions: for Relative Lipase Enzyme Activity in a Use Solution of the All Ash Detergent Composition: Table 6F, 120º F.; for Relative Lipase Enzyme Activity: base formula
# Procedure, shortened: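 Lipase stability was measured in a detergent use solution under conditions mimicking presoak or manual warewash, with stirring in a water bath. Aliquots were taken over time and flash-frozen. Thawed samples were diluted in TRIS buffer at pH 8.0 and assayed with p-nitrophenyl valerate as substrate on a plate reader. Activity is reported as % retained relative to the time=0 sample.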
# [1] = system: enzyme (protease, amylase, lipase); test: Overall effects of phosphonates on enzyme activity (Table 3); type: biochemical; conditions: overall effect of the phosphonate on enzyme activity in the detergent use solution
# Procedure, shortened: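 Protease, amylase and lipase activity in detergent use solutions with varied phosphonate levels, 4000 ppm in 5 GPG water at 120° F., sampled up to 4 h and frozen at −80° C. before assay. Activity given as % retention relative to t=0 (100%).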
structure (smiles),measurement,setting,value
"O=P(O)(O)CN(CP(=O)(O)O)CP(=O)(O)O [ATMP, Aminotri (methylene phosphonic acid)]",Relative Lipase Enzyme Activity in a Use Solution of the All Ash Detergent Composition,"lipase; all ash formula, phosphonate 0.3 wt-%, time 0 min",100.00%
same,Relative Lipase Enzyme Activity in a Use Solution of the All Ash Detergent Composition,"lipase; all ash formula, phosphonate 0.3 wt-%, time 5 min",61.64%
same,Relative Lipase Enzyme Activity in a Use Solution of the All Ash Detergent Composition,"lipase; all ash formula, phosphonate 0.3 wt-%, time 10 min",63.66%
same,Relative Lipase Enzyme Activity in a Use Solution of the All Ash Detergent Composition,"lipase; all ash formula, phosphonate 0.3 wt-%, time 20 min",54.08%
same,Relative Lipase Enzyme Activity in a Use Solution of the All Ash Detergent Composition,"lipase; all ash formula, phosphonate 0.3 wt-%, time 40 min",41.20%
same,Relative Lipase Enzyme Activity in a Use Solution of the All Ash Detergent Composition,"lipase; all ash formula, phosphonate 0.3 wt-%, time 60 min",36.19%
same,Relative Lipase Enzyme Activity in a Use Solution of the All Ash Detergent Composition,"lipase; all ash formula, phosphonate 0.3 wt-%, time 90 min",30.66%
same,Relative Lipase Enzyme Activity in a Use Solution of the All Ash Detergent Composition,"lipase; all ash formula, phosphonate 0.3 wt-%, time 120 min",19.17%
same,Relative Lipase Enzyme Activity in a Use Solution of the All Ash Detergent Composition,"lipase; all ash formula, phosphonate 0.3 wt-%, time 150 min",23.54%
same,Relative Lipase Enzyme Activity in a Use Solution of the All Ash Detergent Composition,"lipase; all ash formula, phosphonate 0.3 wt-%, time 180 min",14.43%
same,Relative Lipase Enzyme Activity in a Use Solution of the All Ash Detergent Composition,"lipase; all ash formula, phosphonate 0.3 wt-%, time 210 min",13.63%
same,Relative Lipase Enzyme Activity in a Use Solution of the All Ash Detergent Composition,"lipase; all ash formula, phosphonate 0.3 wt-%, time 240 min",12.97%
same,lipase stability in all ash formula,"lipase; all ash formula, versus same composition with PBTC or HEDP without amine(s), FIG. 6G",more stable
same,Relative Lipase Enzyme Activity,"lipase; phosphonate 0.3 wt-%, use solution at 120° F., time 0 min",100.00%
same,Relative Lipase Enzyme Activity,"lipase; phosphonate 0.3 wt-%, use solution at 120° F., time 5 min",79.77%
same,Relative Lipase Enzyme Activity,"lipase; phosphonate 0.3 wt-%, use solution at 120° F., time 10 min",71.10%
same,Relative Lipase Enzyme Activity,"lipase; phosphonate 0.3 wt-%, use solution at 120° F., time 20 min",62.47%
same,Relative Lipase Enzyme Activity,"lipase; phosphonate 0.3 wt-%, use solution at 120° F., time 40 min",39.28%
same,Relative Lipase Enzyme Activity,"lipase; phosphonate 0.3 wt-%, use solution at 120° F., time 60 min",34.01%
same,Relative Lipase Enzyme Activity,"lipase; phosphonate 0.3 wt-%, use solution at 120° F., time 90 min",26.70%
same,Relative Lipase Enzyme Activity,"lipase; phosphonate 0.3 wt-%, use solution at 120° F., time 120 min",22.13%
same,Relative Lipase Enzyme Activity,"lipase; phosphonate 0.3 wt-%, use solution at 120° F., time 150 min",19.07%
same,Relative Lipase Enzyme Activity,"lipase; phosphonate 0.3 wt-%, use solution at 120° F., time 180 min",17.48%
same,Relative Lipase Enzyme Activity,"lipase; phosphonate 0.3 wt-%, use solution at 120° F., time 210 min",15.49%
same,Relative Lipase Enzyme Activity,"lipase; phosphonate 0.3 wt-%, use solution at 120° F., time 240 min",14.68%
same,Relative Lipase Enzyme Activity,"lipase; phosphonate 0.6 wt-%, use solution at 120º F., time 0 min",100.00%
same,Relative Lipase Enzyme Activity,"lipase; phosphonate 0.6 wt-%, use solution at 120º F., time 5 min",93.26%
same,Relative Lipase Enzyme Activity,"lipase; phosphonate 0.6 wt-%, use solution at 120º F., time 10 min",87.80%
same,Relative Lipase Enzyme Activity,"lipase; phosphonate 0.6 wt-%, use solution at 120º F., time 20 min",81.36%
same,Relative Lipase Enzyme Activity,"lipase; phosphonate 0.6 wt-%, use solution at 120º F., time 40 min",60.03%
same,Relative Lipase Enzyme Activity,"lipase; phosphonate 0.6 wt-%, use solution at 120º F., time 60 min",56.12%
same,Relative Lipase Enzyme Activity,"lipase; phosphonate 0.6 wt-%, use solution at 120º F., time 90 min",49.58%
same,Relative Lipase Enzyme Activity,"lipase; phosphonate 0.6 wt-%, use solution at 120º F., time 120 min",42.20%
same,Relative Lipase Enzyme Activity,"lipase; phosphonate 0.6 wt-%, use solution at 120º F., time 150 min",37.91%
same,Relative Lipase Enzyme Activity,"lipase; phosphonate 0.6 wt-%, use solution at 120º F., time 180 min",33.77%
same,Relative Lipase Enzyme Activity,"lipase; phosphonate 0.6 wt-%, use solution at 120º F., time 210 min",32.19%
same,Relative Lipase Enzyme Activity,"lipase; phosphonate 0.6 wt-%, use solution at 120º F., time 240 min",29.80%
same,Relative Lipase Enzyme Activity,"lipase; phosphonate at 0.1% elemental phosphorus, at 120º F. or at room temperature (as titled), time 0 min",100.00%
same,Relative Lipase Enzyme Activity,"lipase; phosphonate at 0.1% elemental phosphorus, at 120º F. or at room temperature (as titled), time 5 min",82.14%
same,Relative Lipase Enzyme Activity,"lipase; phosphonate at 0.1% elemental phosphorus, at 120º F. or at room temperature (as titled), time 10 min",78.45%
same,Relative Lipase Enzyme Activity,"lipase; phosphonate at 0.1% elemental phosphorus, at 120º F. or at room temperature (as titled), time 20 min",64.87%
same,Relative Lipase Enzyme Activity,"lipase; phosphonate at 0.1% elemental phosphorus, at 120º F. or at room temperature (as titled), time 40 min",45.84%
same,Relative Lipase Enzyme Activity,"lipase; phosphonate at 0.1% elemental phosphorus, at 120º F. or at room temperature (as titled), time 60 min",37.66%
same,Relative Lipase Enzyme Activity,"lipase; phosphonate at 0.1% elemental phosphorus, at 120º F. or at room temperature (as titled), time 90 min",30.16%
same,Relative Lipase Enzyme Activity,"lipase; phosphonate at 0.1% elemental phosphorus, at 120º F. or at room temperature (as titled), time 120 min",25.91%
same,Relative Lipase Enzyme Activity,"lipase; phosphonate at 0.1% elemental phosphorus, at 120º F. or at room temperature (as titled), time 150 min",21.51%
same,Relative Lipase Enzyme Activity,"lipase; phosphonate at 0.1% elemental phosphorus, at 120º F. or at room temperature (as titled), time 180 min",15.43%
same,Relative Lipase Enzyme Activity,"lipase; phosphonate at 0.1% elemental phosphorus, at 120º F. or at room temperature (as titled), time 210 min",17.94%
same,Relative Lipase Enzyme Activity,"lipase; phosphonate at 0.1% elemental phosphorus, at 120º F. or at room temperature (as titled), time 240 min",15.64%
same,Stability (effects on enzyme activity),[1],Yes
